Molecules are shown by their SMILES. A value given as a limit tells only on which side of the number the result lay.

This assay concerns the target T1, A. baumannii PBP2 (Acinetobacter baumannii, UniProt D0C8Z9).
T1 construct: made in house
T1 sequence (D0C8Z9 1-672): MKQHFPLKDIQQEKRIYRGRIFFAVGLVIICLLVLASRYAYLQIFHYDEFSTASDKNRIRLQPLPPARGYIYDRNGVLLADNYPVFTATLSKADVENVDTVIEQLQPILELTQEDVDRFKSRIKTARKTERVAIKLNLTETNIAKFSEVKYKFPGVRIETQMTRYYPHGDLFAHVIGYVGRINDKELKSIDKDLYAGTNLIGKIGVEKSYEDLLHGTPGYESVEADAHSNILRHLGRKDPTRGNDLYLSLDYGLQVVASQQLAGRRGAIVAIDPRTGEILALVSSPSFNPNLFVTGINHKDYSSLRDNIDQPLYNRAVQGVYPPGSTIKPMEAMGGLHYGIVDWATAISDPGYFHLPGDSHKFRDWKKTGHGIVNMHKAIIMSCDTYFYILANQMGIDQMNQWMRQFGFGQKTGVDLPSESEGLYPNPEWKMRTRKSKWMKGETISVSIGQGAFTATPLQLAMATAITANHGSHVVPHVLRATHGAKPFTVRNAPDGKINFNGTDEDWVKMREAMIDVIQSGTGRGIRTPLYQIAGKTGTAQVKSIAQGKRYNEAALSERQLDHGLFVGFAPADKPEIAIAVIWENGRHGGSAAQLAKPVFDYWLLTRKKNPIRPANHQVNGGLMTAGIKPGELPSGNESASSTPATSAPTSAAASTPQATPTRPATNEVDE
The assay can be described thus: Bocillin-FL fluorescence polarization competition binding assay, A. baumannii PBP2. Conditions: fluorescence polarization competition binding assay using Bocillin-FL; read-out: A. baumannii PBP2 Potency. The essentials:
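Fluorescence polarization (ex 490/em 520 nm) competition of inhibitors against Bocillin-FL at 0.1 μM, read up to 60 min. Final PBP levels: E. coli PBP3 1.5 μM; A. baumannii PBP2 2.5 μM, PBP3 0.2 μM in Tris pH 8.0/NaCl/glycerol/Tween 20; N. gonorrhoeae PBP2 […] in Hepes pH 8.0/NaCl/glycerol. EC50 = concentration halving PBP-bound Bocillin-FL.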
(In general: In fluorescence polarisation assays a small probe gives low polarisation when free and higher when bound to something large.)
For `CCN1CCN(C(=O)N[C@@H](C(=O)N[C@H]2Cc3cccc(C(=O)O)c3OB2O)c2c(O)cc(O)cc2F)C(=O)C1=O` (single isomer, unassigned) [Example 182], the EC50 is > 100 µM.
On to `CS(=O)(=O)N1CCN(C(=O)N[C@@H](C(=O)N[C@H]2Cc3ccc(F)c(C(=O)O)c3OB2O)c2cc(F)c(O)c(O)c2Cl)C1=O` (single isomer, unassigned) [Example 189], for which the EC50 was > 100 µM.
On to `O=C(NCCCN1CCN(C(=O)NC(C(=O)N[C@H]2Cc3ccc(F)c(C(=O)O)c3OB2O)c2ncc(O)cc2F)C(=O)C1=O)c1ccc(O)c(O)c1Cl` (stereo partly drawn) [Example 3, (3R)-3-(2-(4-(3-(2-chloro-3,4-dihydroxybenzamido)propyl)-2,3-dioxopiperazine-1-carboxamido)-2-(3-fluoro-5-hydroxypyridin-2-yl)acetamido)-7-fluoro-2-hydroxy-3,4-dihydro-2H-benzo[e][1,2]oxaborinine-8-carboxylic acid], for which the EC50 is > 100 µM.
Regarding `NCCCN1CCN(C(=O)N[C@@H](C(=O)N[C@H]2Cc3cc(Cl)c(F)c(C(=O)O)c3OB2O)c2c(F)cc(O)c(O)c2Cl)C(=O)C1=O` [Example 190, (R)-3-((R)-2-(4-(3-aminopropyl)-2,3-dioxopiperazine-1-carboxamido)-2-(2-chloro-6-fluoro-3,4-dihydroxyphenyl)acetamido)-6-chloro-7-fluoro-2-hydroxy-3,4-dihydro-2H-benzo[e][1,2]oxaborinine-8-carboxylic acid], the EC50 was > 100 µM.
Take `CCN1CCN(C(=O)N[C@@H](C(=O)N[C@H]2Cc3cc(Cl)c(F)c(C(=O)O)c3OB2O)c2c(F)cc(O)c(O)c2Cl)C(=O)C1=O` [Example 191, (R)-6-chloro-3-((R)-2-(2-chloro-6-fluoro-3,4-dihydroxyphenyl)-2-(4-ethyl-2,3-dioxopiperazine-1-carboxamido)acetamido)-7-fluoro-2-hydroxy-3,4-dihydro-2H-benzo[e][1,2]oxaborinine-8-carboxylic acid]: the EC50 fell in the range of 30 to 100 µM.

For the origin of these results see patent US20230114728A1 (Venatorx Pharmaceuticals, Inc., priority 2019, published 2023).
